Results from patent US8828992B2, “Substituted azole derivatives, pharmaceutical composition containing the derivatives, and method for treating Parkinson's disease using the same” (priority 2009, dated 2014).
Read-outs that look alike come from different tables or passages of the source.

Experiments:
[1] = system: dopamine (DA) in the striatum of a MPTP-treated mouse; assay: Combined administration with Levodopa group: dopamine in the striatum of MPTP-treated mouse (HPLC); format: in vivo; settings: compound 1 mg/kg PO co-administered with Levodopa group (Levodopa 50 mg/kg + Benzerazide 25 mg/kg IP); for Concentration of dopamine compared to a control group %, 1 hr: 1 hr after Levodopa; for Concentration of dopamine compared to a control group %, 3 hr: 3 hr after Levodopa
Procedure: MPTP (20 mg/kg, free base; Sigma, St. louis, Mo.) was administered to an 8 week old (20-25 g) male C57BL/6 test mouse intraperitoneally at the interval of 2 hours to construct a model.
In order to observe the effects of combined administration of a compound of the present invention and Levodopa, the compound of the present invention was dissolved in a solution containing 0.02 ml of dimethylsulfoxide (DMSO), 0.02 ml of Cremophor, 0.08 ml of polyethyleneglycol (PEG), and 0.08 ml of physiological saline. The resulting solution was orally administered at doses of 1 mg/kg one week after the MPTP treatment, and a Levodopa group containing Levodopa at 50 mg/kg and Benzerazide at 25 mg/kg was intraperitoneally administered 1 hour later.
A single administration of the Levodopa group in the following Table 4 indicates values resulting from a MPTP (toxin) treatment followed by an administration of the Levodopa group compared to the treatment results of a Levodopa single administration group of Levodopa and Benzerazide.
At 1 hour and 3 hours after administration of Levodopa, the animals were sacrificed by cervical vertebra dislocation and the brain tissues were immediately isolated from the animals. 0.5 me of iced solution for HPLC analysis (0.1 M perchloric acid and 0.1 mM EDTA) was added to a striatum obtained from the isolated brain tissues, and an ultrasonic grinder was used to prepare a tissue homogenate. The tissue homogenate was centrifuged at 12,000 rpm for 15 minutes, and its supernatant was filtered through nitrocellulose membrane filter (0.2 um, Millipore). For HPLC analysis, uBondapak™ C18 column (4.6×150 mm, particle size 10 μm: Shisheido, Japan) was used, the flow rate of the mobile phase (0.07 M monobasic sodium phosphate, 1 mM sodium octasulfonic acid, 0.1 uM EDTA, 5% acetonitrile, pH 3.2) was maintained at 0.5 me/min, and the electrode potential of the electrochemical detector (CouloChem III, ESA, Japan) was set at 350 mV.

[2] = system: MPTP-induced mouse model; assay: Tail suspension test in MPTP-induced mouse model of Parkinson's disease; format: in vivo; settings: administration concentration 10 (10 mg/kg), oral, 7 days after MPTP, % of control group (Sham); for response vs control in vivo at 10 mg/kg: Mus musculus, 168 h, read-out: Mobility (%)
Procedure: A. MPTP (1-methyl-4-phenyl-1,2,3,6-tetrahydropyridine) and drug treatment MPTP (20 mg/kg, free base; Sigma, St. louis, Mo.) was administered to an 8 week old (20-25 g) male C57BL/6 test mouse intraperitoneally three times a day at the interval of 2 hours to construct a model (Breidert et al., 2002; Lichuan Yang, Shuei Sugama, Jason W. Chirichigno, Jason Gregorio, Stefan Lorenzl, Dong H. Shin, Susan E. Browne, Yoshinori Shimizu, Tong H. Joh, M. Flint Beal, l and David S. Alber. (2003) Minocycline Enhances MPTP Toxicity to Dopaminergic Neurons. J Neurosci Res. 74:278-285). In order to observe the protective effects of the compound as a candidate drug, the compound was dissolved in a solution containing 10% dimethylsulfoxide (DMSO), 10% Cremophor, and 40% polyethyleneglycol (PEG), […] treatment. Rasagiline as a control drug was also dissolved in the same solution, and the resulting solution was administered at the same doses in the same manner as above. A control group (Sham) in which MPTP was not administered was constructed by intraperitoneally administering saline solution to the group instead of MPTP in the same manner as above and orally administering the same solution 1 hour before and after PBS treatment.
A tail suspension test was performed in order to measure the induction degree of behavioral dysfunctions in accordance with administration of MPTP and a drug. At 7 days after administration of the drug, a round stainless steel rod (width: 1 cm) was affixed to a cage (width: 16 cm, height: 40 cm) 35 cm above from the surface shielded by black wooden structures in the left and right sides to perform experiments. The time for which the animal moved for a total period of 6 minutes was measured in seconds to evaluate the drug action.
Mobility refers to an expression of the measurement of the time for which the animal moved with its tail hung high as a percentage compared to the measurement of a control group.

[3] = target: T1, Monoamineoxidase B type human-derived enzyme (Homo sapiens, UniProt P27338); assay: Inhibitory effects on the activity of MAO-B (Amplex Red fluorescence, benzylamine substrate); format: biochemical; settings: for inhibition at 0.01 µM: read-out: Inhibitory effects (%) on the activity of MAO-B
T1 sequence (P27338 1-520): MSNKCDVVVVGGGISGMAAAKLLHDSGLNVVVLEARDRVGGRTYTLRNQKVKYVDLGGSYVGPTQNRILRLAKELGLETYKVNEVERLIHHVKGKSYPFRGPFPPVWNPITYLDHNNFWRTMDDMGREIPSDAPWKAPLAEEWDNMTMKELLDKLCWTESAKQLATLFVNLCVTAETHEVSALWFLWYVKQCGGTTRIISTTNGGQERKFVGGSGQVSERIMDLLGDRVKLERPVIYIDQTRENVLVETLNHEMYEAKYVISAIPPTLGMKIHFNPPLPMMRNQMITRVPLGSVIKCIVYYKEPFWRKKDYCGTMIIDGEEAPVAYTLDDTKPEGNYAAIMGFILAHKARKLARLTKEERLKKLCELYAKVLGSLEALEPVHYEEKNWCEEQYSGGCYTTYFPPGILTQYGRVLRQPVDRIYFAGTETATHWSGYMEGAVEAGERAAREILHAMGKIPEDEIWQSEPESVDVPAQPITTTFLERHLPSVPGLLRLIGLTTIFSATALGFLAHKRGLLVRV
Method in brief: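 Human MAO-B, diluted 1:200 in 0.05 M sodium phosphate pH 7.4, was pre-incubated with compound for 30 min. It was then mixed 1:1 with working buffer holding 400 μM Amplex Red, 2 U/ml HRP and 2 mM benzylamine (working-buffer levels). Fluorescence (Ex 563/Em 587 nm) was read over 30 min.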

| Compound | Concentration of dopamine compared to a control group %, 1 hr [1] | Concentration of dopamine compared to a control group %, 3 hr [1] | response vs control in vivo at 10 mg/kg [2] | inhibition at 0.01 µM [3] | inhibition at 0.01 µM ([3]; treatment concentration 10 nM) | Mobility (%) [2] | Inhibitory effects (%) on the activity of MAO-B ([3]; treatment concentration 10 nM) |
| --- | --- | --- | --- | --- | --- | --- | --- |
| NC(=O)OCc1cc(-c2ccc(OCc3ccccc3)cc2)ns1 [Example 3, carbamic acid 3-(4-benzyloxy-phenyl)-isothiazol-5-ylmethyl ester] | 173.43% | 39.3% | 70.3% | 95.2% |  |  |  |
| NC(=O)OCc1cc(-c2ccc(OCc3ccccc3F)cc2)no1 [Example 11, carbamic acid 3-[4-(2-fluoro-benzyloxy)-phenyl]-isoxazol-5-ylmethyl ester] |  |  | 82.2% |  | 101% |  |  |
| NC(=O)OCc1cc(-c2ccc(OCc3c(F)cccc3F)cc2)no1 [Example 14, carbamic acid 3-[4-(2,6-difluoro-benzyloxy)-phenyl]-isoxazol-5-ylmethyl ester] |  |  | 75.3% |  | 96% |  |  |
| CCCCOc1ccc(-c2cc(COC(N)=O)on2)cc1 [Example 43, carbamic acid 3-(4-butoxy-phenyl)-isoxazol-5-ylmethyl ester] |  |  | 71% | 96.8% |  |  |  |
| NC(=O)OCc1cc(-c2ccc(OCSC(F)(F)F)cc2)no1 [Example 58, carbamic acid 3-(4-trifluoromethylsulfanylmethoxy-phenyl)-isoxazol-5-ylmethyl ester] |  |  | 98.9% | 88.1% |  |  |  |
| NC(=O)OCc1cc(-c2ccc(OCc3cccnc3)cc2)no1 [Example 66, Carbamic acid 3-[4-(pyridin-3-ylmethoxy)-phenyl]-isoxazol-5-ylmethyl ester] |  |  | 74.9% | 87.3% |  |  |  |
| Cc1noc(C)c1COc1ccc(-c2cc(COC(N)=O)on2)cc1 [Example 72, carbamic acid 3-[4-(3,5-dimethyl-isoxazol-4-ylmethoxy)-phenyl]-isoxazol-5-ylmethyl ester] |  |  | 91.4% |  | 87.9% |  |  |
| NC(=O)OCc1cc(-c2ccc(NCc3ccccc3)cc2)no1 [Example 74, Carbamic acid 3-(4-benzylamino-phenyl)-isoxazol-5-ylmethyl ester] | 153.7% | 74.7% | 96.9% | 84.5% |  |  |  |
| NC(=O)OCc1cc(-c2ccc(NCc3c(F)cccc3F)cc2)no1 [Example 79, Carbamic acid 3-[4-(2,6-difluoro-benzylamino)-phenyl]-isoxazol-5-ylmethyl ester] | 87.6% | 115.2% | 99.4% |  | 84.6% |  |  |
| NC(=O)OCc1cc(-c2ccc(NCc3ccc(F)cc3F)cc2)no1 [Example 81, Carbamic acid 3-[4-(2,4-difluoro-benzylamino)-phenyl]-isoxazol-5-ylmethyl ester] |  |  | 72.6% |  | 91.4% |  |  |
| NC(=O)OCc1cc(-c2ccc(NCc3ccc(F)c(F)c3)cc2)no1 [Example 84, Carbamic acid 3-[4-(3,4-difluoro-benzylamino)-phenyl]-isoxazol-5-ylmethyl ester] | 153.7% | 144.3% | 97.7% |  | 88.5% |  |  |
| Cc1cccc(CNc2ccc(-c3cc(COC(N)=O)on3)cc2)c1 [Example 101, Carbamic acid 3-[4-(3-methyl-benzylamino)-phenyl]-isoxazol-5-ylmethyl ester] |  |  | 78.3% |  | 80.5% |  |  |
| COc1ccccc1CNc1ccc(-c2cc(COC(N)=O)on2)cc1 [Example 104, Carbamic acid 3-[4-(2-methoxy-benzylamino)-phenyl]-isoxazol-5-ylmethyl ester] |  |  | 82% |  | 89.1% |  |  |
| NC(=O)OCc1cc(-c2ccc(NCc3cccs3)cc2)no1 [Example 110, carbamic acid 3-{4-[(thiophen-2-ylmethyl)-amino]-phenyl}-isoxazol-5-ylmethyl ester] |  |  | 80.7% | 80.8% |  |  |  |
| NC(=O)OCc1cc(-c2ccc(NCc3ccoc3)cc2)no1 [Example 111, carbamic acid 3-{4-[(furan-3-ylmethyl)-amino]-phenyl}-isoxazol-5-ylmethyl ester] |  |  | 78.8% | 69% |  |  |  |
| Fc1cccc(COc2ccc(-c3cc(Cn4ccnc4)on3)cc2)c1 [Example 142, 3-[4-(3-fluoro-benzyloxy)-phenyl]-5-imidazol-1-ylmethyl-isoxazole] | 174.5% | 65.5% | 101% |  | 89.5% |  |  |
| c1ccc(COc2ccc(-c3cc(CN4CCCC4)on3)cc2)cc1 [Example 148, 3-(4-benzyloxy-phenyl)-5-pyrrolidin-1-ylmethyl-isoxazole] |  |  | 95.9% |  | 79% |  |  |
| NC(=O)CNCc1cc(-c2ccc(OCc3ccccc3)cc2)no1 [Example 162, 2-{[3-(4-benzyloxy-phenyl)-isoxazol-5-ylmethyl]-amino}-acetamide] | 148.3% | 100.1% |  |  | 66.1% |  |  |
| [carbamic acid 3-(4-methylsulfanylmethoxy-phenyl)-isoxazol-5-ylmethyl ethyl ester [Example 48] |  |  |  |  |  | 74.6% | 48.4% |
